Test results reported in the NIST ThermoML archive (doi:10.1021/je301283e).
Numbers after ± are expanded uncertainties.

Settings: Fluid (supercritical or subcritical phases), Vibrating tube method

O=C=O [carbon dioxide]
mass density [kg/m3]
Settings	313.15 K	333.15 K	353.15 K	373.15 K	393.15 K
340 kPa	8.2 ± 1.4	7.7 ± 1.4	7.4 ± 1.4	6.5 ± 1.4	5.7 ± 1.4
690 kPa	15.1 ± 1.4	13.4 ± 1.4	13.5 ± 1.4	10.9 ± 1.4	9.5 ± 1.4
1030 kPa	21.4 ± 1.4	19.9 ± 1.4	18.8 ± 1.4	17.1 ± 1.4	16.3 ± 1.4
1380 kPa	26.7 ± 1.4	25.1 ± 1.4	24.6 ± 1.4	23.2 ± 1.4	22.1 ± 1.4
1720 kPa	34.2 ± 1.4	31.9 ± 1.4	31.4 ± 1.4	28.6 ± 1.4	26.9 ± 1.4
2070 kPa	38.6 ± 1.4	38.4 ± 1.4	36.1 ± 1.4	32.7 ± 1.4	32 ± 1.4
2410 kPa	48.4 ± 1.4	44.1 ± 1.4	41.9 ± 1.4	39.2 ± 1.4	37 ± 1.4
2760 kPa	56.7 ± 1.4	51.2 ± 1.4	48 ± 1.4	44.8 ± 1.4	–
3100 kPa	64.1 ± 1.4	59.1 ± 1.4	54.1 ± 1.4	50.3 ± 1.4	47.4 ± 1.4
3450 kPa	72.9 ± 1.4	65.1 ± 1.4	61.4 ± 1.4	56.1 ± 1.4	52.9 ± 1.4
3800 kPa	80.9 ± 1.4	73.1 ± 1.4	67.2 ± 1.4	63.2 ± 1.4	58.2 ± 1.4
4140 kPa	87.5 ± 1.4	79.7 ± 1.4	73.8 ± 1.4	67.9 ± 1.4	63.6 ± 1.4
4480 kPa	99.4 ± 1.4	87.9 ± 1.4	80.5 ± 1.4	73.1 ± 1.4	69.2 ± 1.4
4830 kPa	109.8 ± 1.4	96.5 ± 1.4	88 ± 1.4	80 ± 1.4	74.7 ± 1.4
5170 kPa	122 ± 1.4	105.1 ± 1.4	94.9 ± 1.4	86.2 ± 1.4	80.4 ± 1.4
5510 kPa	134 ± 1.4	114.2 ± 1.4	102.4 ± 1.4	93 ± 1.4	86.2 ± 1.4
5860 kPa	145.4 ± 1.4	123.8 ± 1.4	110.2 ± 1.4	99.2 ± 1.4	92.4 ± 1.4
6200 kPa	158 ± 1.5	133.4 ± 1.4	118 ± 1.4	106 ± 1.4	98.1 ± 1.4
6550 kPa	175.1 ± 1.5	144.2 ± 1.4	126.2 ± 1.4	112.9 ± 1.4	104.7 ± 1.4
6890 kPa	194.5 ± 1.5	154.3 ± 1.5	134.4 ± 1.4	120 ± 1.4	110.5 ± 1.4
7240 kPa	218.9 ± 1.6	166.4 ± 1.5	143.4 ± 1.4	127 ± 1.4	113.6 ± 1.4
7580 kPa	239.9 ± 1.7	178.8 ± 1.5	152.1 ± 1.4	135.4 ± 1.4	123.1 ± 1.4
7930 kPa	272.8 ± 1.9	190.1 ± 1.5	161.4 ± 1.4	143.1 ± 1.4	129.9 ± 1.4
8270 kPa	315.6 ± 2.3	205.2 ± 1.6	171.1 ± 1.5	151.1 ± 1.4	136.2 ± 1.4
8620 kPa	383.1 ± 3	219.5 ± 1.8	180.8 ± 1.5	158.1 ± 1.4	142.9 ± 1.4
8960 kPa	478.5 ± 3.5	235.1 ± 2.1	191.1 ± 1.5	166.1 ± 1.4	149.4 ± 1.4
9310 kPa	554.1 ± 3.6	252.4 ± 2.3	201.8 ± 1.5	174.4 ± 1.4	156.2 ± 1.4
9650 kPa	599.1 ± 3.7	271 ± 2.5	211.9 ± 1.5	182.7 ± 1.5	163.2 ± 1.4
10000 kPa	630 ± 3.7	291.4 ± 2.6	223.5 ± 1.5	191.9 ± 1.5	170.4 ± 1.4
10340 kPa	649.1 ± 3.7	313.6 ± 2.6	235 ± 1.6	199.4 ± 1.5	176.4 ± 1.4
10690 kPa	667.8 ± 3.6	337 ± 2.7	247.4 ± 1.6	208.4 ± 1.5	183.2 ± 1.5
11030 kPa	682.9 ± 3.5	361.9 ± 2.7	259.8 ± 1.6	217.3 ± 1.5	191.1 ± 1.5
11380 kPa	696.2 ± 3.4	388 ± 2.7	272.4 ± 1.7	223.2 ± 1.5	198.2 ± 1.5
11720 kPa	708 ± 3.3	411.1 ± 2.7	283.9 ± 1.7	233.1 ± 1.5	203.9 ± 1.5
12070 kPa	718.3 ± 3.2	437.9 ± 2.7	298.3 ± 1.8	242.8 ± 1.5	210.8 ± 1.5
12410 kPa	727.4 ± 3	463.8 ± 2.7	312.1 ± 1.9	252.7 ± 1.5	218 ± 1.5
12750 kPa	737.3 ± 2.9	489.2 ± 2.7	328.4 ± 1.9	262.8 ± 1.6	226.3 ± 1.5
13100 kPa	744.1 ± 2.8	510.1 ± 2.6	342 ± 1.9	272.5 ± 1.6	234 ± 1.5
13440 kPa	751 ± 3	530.7 ± 2.6	356.7 ± 2	283.1 ± 1.6	242.1 ± 1.5
13790 kPa	757.9 ± 2.5	549.9 ± 2.5	372.8 ± 2	293.1 ± 1.6	250.9 ± 1.5
14130 kPa	765.3 ± 2.4	567.7 ± 2.5	388.6 ± 2	304.7 ± 1.6	258 ± 1.5
14480 kPa	770 ± 2.4	582 ± 2.4	403 ± 2.1	314.9 ± 1.6	266.4 ± 1.5
14820 kPa	775.9 ± 2.3	596 ± 2.4	417.8 ± 2.1	325 ± 1.7	275 ± 1.6
15160 kPa	781.5 ± 2.2	609.4 ± 2.3	433 ± 2.1	336.1 ± 1.7	283.9 ± 1.6
15510 kPa	786.4 ± 2.2	621 ± 2.3	447.5 ± 2.1	347.6 ± 1.7	291.1 ± 1.6
15860 kPa	791.7 ± 2.2	627.4 ± 2.3	461 ± 2.1	358.1 ± 1.7	300.7 ± 1.6
16200 kPa	796.1 ± 2.1	642.1 ± 2.2	475 ± 2.1	368.7 ± 1.7	308.4 ± 1.6
16550 kPa	801.2 ± 2.1	651.8 ± 2.2	488.1 ± 2.1	379.8 ± 1.8	316.8 ± 1.6
16900 kPa	805.8 ± 2	661.7 ± 2.1	501 ± 2.1	390.2 ± 1.8	325.1 ± 1.6
17240 kPa	809.8 ± 2	669.7 ± 2.1	513 ± 2.4	400.4 ± 2.1	333.1 ± 1.6
